# Columns and labels:
# Assay in all cases: phosphoenolpyruvate titration of purified optical probe (fluorescence ratio)
# Format in all cases: binding
# Details in all cases: phosphoenolpyruvate 0 to 10 mM, purified probe treated 10 minutes, ex 420/485 nm, em 528 nm
# [1] = biological target: T1, Thermus thermophilus TtPFK optical probe 254/255-TtPFK-cpYFP variant, TtPFK V54K/I253G/Q254L/R255L/G256F, cpYFP Y1P (Thermus thermophilus, UniProt P21777, form not given/G256F/I253G/Q254L/R255L/V54K)
# T1 construct: the numbering corresponds to the full length of the phosphoenolpyruvate-sensitive polypeptide; His-tag; made in house; host or cells: E. coli BL21 (DE3)
# Description: (§1) • 1. The expression vectors (for example, a phosphoenolpyruvate optical probe expression vector based on pCDF.) were transformed into BL21 (DE3) cells, incubated inverted overnight, and the clones were picked from the plates into 250 mL Erlenmeyer flasks, placed in a shaker at 37 °C and incubated at 220 rpm to OD=0.4-0.8, then 1/1000 (V/V) of IPTG (1 M) was added to induce expression at 18 °C for 24-36 hours. • 2. Upon completion of inducible expression, cells were harvested by centrifugation at 4000 rpm for 30 min, resuspended in 50 mM phosphate buffer and disrupted ultrasonically until the broth were clear, centrifuged at 9600 rpm at 4 °C for 20 min. • 3. The centrifuged supernatant was used to obtain protein by purification through a self-packed nickel column affinity chromatography column, and the protein obtained after nickel column affinity chromatography was further used to obtain protein dissolved in 100 mM HEPES buffer (pH 7.4). • 4. After purified proteins were subjected to SDS-PAGE, probes were diluted to a protein solution having a final concentration of 0.2-5 µM using assay buffer (100 mm HEPES, 100 mM NaCl, pH 7.4). Phosphoenolpyruvate was formulated as a stock solution at a final concentration of 50 mM with the assay buffer (100 mM HEPES, 100 mM NaCl, pH 7.4). • 5. 100 µl 1 µM of protein solution was taken, incubated at 37 °C for 10 min, phosphoenolpyruvate was added for titration, and the fluorescence intensity of 528 nm emission after 420 nm and 485 nm fluorescence excitation of the protein was measured. The fluorescence excitation and emission determination of the samples were done using a multifunctional fluorescence microplate reader. • 6. 100 µl 1 µM of protein solution was taken, incubated at 37 °C for 10 min, and phosphoenolpyruvate was added to determine the absorption and fluorescence spectra of the proteins. Determination of the absorption and fluorescence spectra of the samples was done by spectrophotometer and spectrofluorometer.
# (§2) For the 254/255-TtPFK-cpYFP obtained in Example 2 and the 254/255-TtPFK-I253G/Q254L/R255L/G256F-cpYFP-Y1P, 254/255-TtPFK-I253K/Q254L/R255L/G256F-cpYFP-Y1S and 254/256-TtPFK-I253Q/Q254L/G256V/G257L-cpYFP-Y1T/N246F optical probes obtained in Example 6, amino acid were mutated at positions R21, R25, V54, R55, V57, A58, N59, I60, I61, R155, G186, R212, G213, K214, K215, S216 and L320 in the phosphoenolpyruvate binding pocket, and at positions R72, R163, R172 and R246 in the ATP binding pocket to adjust the affinity of the phosphoenolpyruvate optical probe to phosphoenolpyruvate and the substrate specificity. The probes were linearized by reverse PCR, and the sequences of the mutation sites were introduced into the primers. The obtained PCR products were subjected to homologous recombination to obtain plasmids containing the above site mutations. The mutant plasmids were transformed into BL21 (DE3) for induced expression, and the mutant probe proteins were purified for the phosphoenolpyruvate response test. The detection signal of the fusion fluorescent protein containing 2 mM phosphoenolpyruvate was divided by the detection signal of the fusion fluorescent protein without phosphoenolpyruvate. […]
# [2] = biological target: T2, Thermus thermophilus TtPFK optical probe 254/256-TtPFK-cpYFP variant, TtPFK G213T/I253Q/Q254L/G256V/G257L, cpYFP Y1T/N246F (Thermus thermophilus, UniProt P21777, form not given/G213T/G256V/G257L/I253Q/Q254L)
# T2 construct: the numbering corresponds to the full length of the phosphoenolpyruvate-sensitive polypeptide; His-tag; made in house; host or cells: E. coli BL21 (DE3)
# Description: as §1, §2
# [3] = biological target: T3, Thermus thermophilus TtPFK optical probe 254/255-TtPFK-cpYFP variant, TtPFK V54Q/I253K/Q254L/R255L/G256F, cpYFP Y1S (Thermus thermophilus, UniProt P21777, form not given/G256F/I253K/Q254L/R255L/V54Q)
# T3 construct: His-tag; made in house; host or cells: E. coli BL21 (DE3)
# Description: as §1, §2
# [4] = biological target: T4, Thermus thermophilus TtPFK optical probe 254/256-TtPFK-cpYFP variant, TtPFK V54Q/I253Q/Q254L/G256V/G257L, cpYFP Y1T/N246F (Thermus thermophilus, UniProt P21777, form not given/G256V/G257L/I253Q/Q254L/V54Q)
# T4 construct: the numbering corresponds to the full length of the phosphoenolpyruvate-sensitive polypeptide; His-tag; made in house; host or cells: E. coli BL21 (DE3)
# Description: as §1, §2
# [5] = biological target: T5, Thermus thermophilus TtPFK optical probe 254/256-TtPFK-cpYFP variant, TtPFK L320F/I253Q/Q254L/G256V/G257L, cpYFP Y1T/N246F (Thermus thermophilus, UniProt P21777, form not given/G256V/G257L/I253Q/L320F/Q254L)
# T5 construct: the numbering corresponds to the full length of the phosphoenolpyruvate-sensitive polypeptide; His-tag; made in house; host or cells: E. coli BL21 (DE3), pCDF vector
# Description: as §1, §2
# [6] = biological target: T6, Thermus thermophilus TtPFK optical probe 254/255-TtPFK-cpYFP variant, TtPFK V54Q/I253G/Q254L/R255L/G256F, cpYFP Y1P (Thermus thermophilus, UniProt P21777, form not given/G256F/I253G/Q254L/R255L/V54Q)
# T6 construct: the numbering corresponds to the full length of the phosphoenolpyruvate-sensitive polypeptide; His-tag; made in house; host or cells: E. coli BL21 (DE3)
# Description: as §1, §2
# [7] = biological target: T7, Thermus thermophilus TtPFK optical probe 254/255-TtPFK-cpYFP variant, TtPFK I253V/Q254A/R255F/G256Y, cpYFP N246F (Thermus thermophilus, UniProt P21777, form not given/G256Y/I253V/Q254A/R255F)
# T7 construct: the numbering corresponds to the full length of the phosphoenolpyruvate-sensitive polypeptide; His-tag; made in house; host or cells: E. coli BL21 (DE3)
# Description: as §1
# (§3) The recombinant plasmids of the mutation library were transformed into BL21 (DE3) to induce expression, and the purified probe protein was subjected to phosphoenolpyruvate-responsive screening, dividing the detection signal of the fusion fluorescent protein containing 2 mM phosphoenolpyruvate by that of the fusion fluorescent protein without phosphoenolpyruvate. […]
# [8] = biological target: T8, Thermus thermophilus TtPFK optical probe 254/255-TtPFK-cpYFP variant, TtPFK I253F/Q254L/R255L/G256F, cpYFP Y1G/N246F (Thermus thermophilus, UniProt P21777, form not given/G256F/I253F/Q254L/R255L)
# T8 construct: the numbering corresponds to the full length of the phosphoenolpyruvate-sensitive polypeptide; His-tag; made in house; host or cells: E. coli BL21 (DE3)
# Description: as §1, §3
# T1 sequence (P21777 other isoform, or with tags, fused parts or gaps V54K, form open): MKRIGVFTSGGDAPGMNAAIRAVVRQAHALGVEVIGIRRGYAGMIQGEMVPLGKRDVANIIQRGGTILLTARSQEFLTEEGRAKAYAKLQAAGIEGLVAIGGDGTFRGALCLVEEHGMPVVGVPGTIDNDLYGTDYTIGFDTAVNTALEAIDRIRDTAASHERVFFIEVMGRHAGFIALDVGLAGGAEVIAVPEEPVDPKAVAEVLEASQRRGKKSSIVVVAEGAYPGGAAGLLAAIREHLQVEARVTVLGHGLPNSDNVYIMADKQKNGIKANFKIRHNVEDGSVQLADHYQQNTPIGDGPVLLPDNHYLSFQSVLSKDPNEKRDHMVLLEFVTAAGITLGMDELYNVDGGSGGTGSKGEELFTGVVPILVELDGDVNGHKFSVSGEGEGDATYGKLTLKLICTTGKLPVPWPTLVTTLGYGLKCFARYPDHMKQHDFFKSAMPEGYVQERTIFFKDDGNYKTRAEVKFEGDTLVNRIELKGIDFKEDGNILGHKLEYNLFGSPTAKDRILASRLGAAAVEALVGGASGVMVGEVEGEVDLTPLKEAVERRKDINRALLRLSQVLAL
# T4 sequence (P21777 other isoform, or with tags, fused parts or gaps V54Q, form open): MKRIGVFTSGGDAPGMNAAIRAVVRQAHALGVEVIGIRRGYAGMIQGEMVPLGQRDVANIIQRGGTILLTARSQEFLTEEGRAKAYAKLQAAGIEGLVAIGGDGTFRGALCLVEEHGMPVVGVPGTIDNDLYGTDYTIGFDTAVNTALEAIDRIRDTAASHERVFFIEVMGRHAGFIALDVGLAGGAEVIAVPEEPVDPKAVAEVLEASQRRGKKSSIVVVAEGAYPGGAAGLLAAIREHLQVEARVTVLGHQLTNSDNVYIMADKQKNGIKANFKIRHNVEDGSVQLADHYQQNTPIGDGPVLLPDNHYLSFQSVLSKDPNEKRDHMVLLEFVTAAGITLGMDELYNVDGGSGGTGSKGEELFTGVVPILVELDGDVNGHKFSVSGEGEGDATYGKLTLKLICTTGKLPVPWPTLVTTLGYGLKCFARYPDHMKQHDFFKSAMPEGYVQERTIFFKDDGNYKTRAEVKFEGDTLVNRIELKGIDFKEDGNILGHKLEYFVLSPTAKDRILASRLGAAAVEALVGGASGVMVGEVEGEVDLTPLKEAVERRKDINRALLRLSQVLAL
# T3 sequence (P21777 other isoform, or with tags, fused parts or gaps V54Q, form open): as the sequence (P21777 other isoform, or with tags, fused parts or gaps V54K, form open) above, with K54Q, G253K, P255S counted along it
# T6 sequence (P21777 other isoform, or with tags, fused parts or gaps V54Q, form open): as the sequence (P21777 other isoform, or with tags, fused parts or gaps V54K, form open) above, with K54Q counted along it
# T5 sequence (P21777 other isoform, or with tags, fused parts or gaps, stated change not applied): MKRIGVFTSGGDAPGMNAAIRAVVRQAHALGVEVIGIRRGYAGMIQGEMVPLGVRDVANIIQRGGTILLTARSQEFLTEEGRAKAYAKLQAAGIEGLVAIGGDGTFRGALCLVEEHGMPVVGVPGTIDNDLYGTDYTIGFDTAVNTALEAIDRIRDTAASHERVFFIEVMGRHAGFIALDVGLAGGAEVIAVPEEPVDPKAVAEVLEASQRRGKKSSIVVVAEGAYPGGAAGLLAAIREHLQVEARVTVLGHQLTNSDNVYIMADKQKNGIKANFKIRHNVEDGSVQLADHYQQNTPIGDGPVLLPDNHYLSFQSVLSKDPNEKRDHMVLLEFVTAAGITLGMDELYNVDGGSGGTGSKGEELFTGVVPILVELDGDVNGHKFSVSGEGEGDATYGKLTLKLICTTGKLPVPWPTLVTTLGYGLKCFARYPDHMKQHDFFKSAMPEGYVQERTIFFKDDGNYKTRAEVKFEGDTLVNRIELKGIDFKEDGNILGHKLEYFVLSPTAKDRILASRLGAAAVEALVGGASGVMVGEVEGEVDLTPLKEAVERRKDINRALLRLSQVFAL
# T8 sequence (P21777 other isoform, or with tags, fused parts or gaps, stated change not applied): as the sequence (P21777 other isoform, or with tags, fused parts or gaps V54K, form open) above, with K54V, G253F, P255G, N500F counted along it
# T2 sequence (P21777 other isoform, or with tags, fused parts or gaps G213T, form open): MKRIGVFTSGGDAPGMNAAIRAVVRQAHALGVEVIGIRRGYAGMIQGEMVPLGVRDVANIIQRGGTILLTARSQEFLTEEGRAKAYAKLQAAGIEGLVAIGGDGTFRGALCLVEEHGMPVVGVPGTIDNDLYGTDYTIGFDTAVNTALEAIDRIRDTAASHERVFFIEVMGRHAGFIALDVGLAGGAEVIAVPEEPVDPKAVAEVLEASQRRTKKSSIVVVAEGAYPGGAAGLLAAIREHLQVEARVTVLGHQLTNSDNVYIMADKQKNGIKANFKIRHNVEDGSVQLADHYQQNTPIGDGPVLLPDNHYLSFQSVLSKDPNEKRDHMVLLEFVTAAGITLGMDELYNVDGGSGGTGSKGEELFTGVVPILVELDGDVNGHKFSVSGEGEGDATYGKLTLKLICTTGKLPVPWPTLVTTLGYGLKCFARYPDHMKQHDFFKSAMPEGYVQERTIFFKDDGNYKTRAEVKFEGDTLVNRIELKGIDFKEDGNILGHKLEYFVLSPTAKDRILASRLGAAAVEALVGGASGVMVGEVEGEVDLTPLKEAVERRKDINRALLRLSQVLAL
# T7 sequence (P21777 other isoform, or with tags, fused parts or gaps, stated change not applied): as the sequence (P21777 other isoform, or with tags, fused parts or gaps V54K, form open) above, with K54V, G253V, L254A, P255Y, N500F, L501F, F502Y counted along it
structure (smiles),measurement,setting,value
"C=C(OP(=O)(O)O)C(=O)O [phosphoenolpyruvate, Phosphoenolpyruvate]",Kd,[1],267 µM
same,Kd,[2],199 µM
same,Kd,[3],328 µM
same,Kd,[4],281 µM
same,Kd,[5],1770 µM
same,Kd,[6],769 µM
same,Kd,[7],32 µM
same,Kd,[8],5.56 µM

# Reference: patent publication EP4624497A1, “PHOSPHOEN[…] PROBE, PREPARATION METHOD THEREFOR AND APPLICATION THEREOF” (priority 2022, dated 2024)
